Source: ChEMBL document CHEMBL5257051, “Integrasone Derivatives Isolated from Lepteutypa sp. KT4162 and Their Anti-HIV-1 Integrase Activity” (J Nat Prod, 2023)

Assays:
[1] = Cytotoxicity against human HEK293T cells assessed as cell growth inhibition measured for 30 mins by WST assay; type: toxicity, cell-based, HEK-293T
[2] = Inhibition of HIV-1 Integrase transfected in human HEK293T cells measured after 48 hrs by bright-glo luciferase assay; type: cell-based; conditions: Human immunodeficiency virus 1, HEK-293T
[3] = Inhibition of HIV-1 Integrase transfected in human HEK293T cells measured after 48 hrs by luminometer analysis; type: cell-based, Human immunodeficiency virus 1
[4] = Cytotoxicity against human HEK293T cells assessed as cell growth inhibition by MTT assay; type: toxicity, cell-based, HEK-293T

Structure (SMILES) | IC50 [2] [µM] | IC50 [3] [µM] | CC50 at 0.5 h [1] [µM] | CC50 [4] [µM]
CCCCCCCCC(=O)Cc1occ2c1[C@@H](O)[C@@H]1O[C@@H]1[C@@H]2O | 40 |  | > 250 | 
O=C(CCCCCCCCO)C[C@H]1OCC2=C1[C@@H](O)[C@@H]1O[C@@H]1[C@@H]2O | 112 |  | > 250 | 
COc1cc2c(cc1Cc1cccc(Cl)c1F)c(=O)c(C(=O)O)cn2[C@H](CO)C(C)C [ELVITEGRAVIR] |  | 3.8 |  | > 250

The next lines start with results.

IC50 [2] [µM] | IC50 [3] [µM] | Structure (SMILES) | CC50 at 0.5 h [1] [µM] | CC50 [4] [µM]
95 |  | CCCCCCCCC(=O)C[C@H]1OCC2=C1[C@@H](O)[C@@H]1O[C@@H]1[C@@H]2O | > 250 | 
56 |  | CCCCCCCCC(=O)C[C@H]1OC(=O)C2=C1[C@@H](O)[C@@H]1O[C@@H]1[C@@H]2O | > 250 | 
2.5 |  | CCCCCCCCC(=O)C[C@@H]1OC(=O)C2=C1[C@@H](O)[C@@H]1O[C@@H]1[C@@H]2O | > 250 | 
